Measurements from the kinase profiling compilation of Christmann-Franck et al. (2016).
Several values for one entry are separate records, joined by “and”; a condition that tells them apart may be missing. Equal entries are not always repeated.

Tests used:
Assay in all cases: radiometric filter-binding kinase assay, Kinase HotSpot
Settings in all cases: compound 0.5 µM; ATP 10 µM
ACVRL1 (human) = ACVRL1 (human) (UniProt P37023)
AKT1 (human) = AKT1 (human) (UniProt P31749)
ALK (human) = ALK (human) (UniProt Q9UM73)
BLK (human) = BLK (human) (UniProt P51451)
BRSK1 (human) = BRSK1 (human) (UniProt Q8TDC3)
BRSK2 (human) = BRSK2 (human) (UniProt Q8IWQ3)
CDC42BPA (human) = CDC42BPA (human) (UniProt Q5VT25)
CDK3 CCNE1 (human) = CDK3 CCNE1 (human) (UniProt Q00526+P24864)
CDK6 CCND3 (human) = CDK6 CCND3 (human) (UniProt P30281+Q00534)
CSNK1A1 (human) = CSNK1A1 (human) (UniProt P48729)
DDR2 (human) = DDR2 (human) (UniProt Q16832)
DYRK1A (human) = DYRK1A (human) (UniProt Q13627)
EPHA1 (human) = EPHA1 (human) (UniProt P21709)
EPHB2 (human) = EPHB2 (human) (UniProt P29323)
EPHB3 (human) = EPHB3 (human) (UniProt P54753)
FGFR4 (human) = FGFR4 (human) (UniProt P22455)
FYN (human) = FYN (human) (UniProt P06241)
GSK3B (human) = GSK3B (human) (UniProt P49841)
IRAK1 (human) = IRAK1 (human) (UniProt P51617)
LRRK2 (human) = LRRK2 (human) (UniProt Q5S007)
LTK (human) = LTK (human) (UniProt P29376)
LYN (human) = LYN (human) (UniProt P07948)
MAP2K2 (human) = MAP2K2 (human) (UniProt P36507)
MAP3K10 (human) = MAP3K10 (human) (UniProt Q02779)
MAP3K11 (human) = MAP3K11 (human) (UniProt Q16584)
MAP4K4 (human) = MAP4K4 (human) (UniProt O95819)
MAPK14 (human) = MAPK14 (human) (UniProt Q16539)
MAPKAPK5 (human) = MAPKAPK5 (human) (UniProt Q8IW41)
MARK4 (human) = MARK4 (human) (UniProt Q96L34)
NEK1 (human) = NEK1 (human) (UniProt Q96PY6)
NTRK1 (human) = NTRK1 (human) (UniProt P04629)
PASK (human) = PASK (human) (UniProt Q96RG2)
PDGFRA (human) = PDGFRA (human) (UniProt P16234)
PDPK1 (human) = PDPK1 (human) (UniProt O15530)
PIM1 (human) = PIM1 (human) (UniProt P11309)
PKN1 (human) = PKN1 (human) (UniProt Q16512)
PRKD3 (human) = PRKD3 (human) (UniProt O94806)
PRKG2 (human) = PRKG2 (human) (UniProt Q13237)
RPS6KA5 KD2 (human) = RPS6KA5 KD2 (human) (UniProt O75582)
RPS6KB1 (human) = RPS6KB1 (human) (UniProt P23443)
STK3 (human) = STK3 (human) (UniProt Q13188)
WNK3 (human) = WNK3 (human) (UniProt Q9BYP7)

Sequence of BLK (human) (P51451 whole entry, looked up): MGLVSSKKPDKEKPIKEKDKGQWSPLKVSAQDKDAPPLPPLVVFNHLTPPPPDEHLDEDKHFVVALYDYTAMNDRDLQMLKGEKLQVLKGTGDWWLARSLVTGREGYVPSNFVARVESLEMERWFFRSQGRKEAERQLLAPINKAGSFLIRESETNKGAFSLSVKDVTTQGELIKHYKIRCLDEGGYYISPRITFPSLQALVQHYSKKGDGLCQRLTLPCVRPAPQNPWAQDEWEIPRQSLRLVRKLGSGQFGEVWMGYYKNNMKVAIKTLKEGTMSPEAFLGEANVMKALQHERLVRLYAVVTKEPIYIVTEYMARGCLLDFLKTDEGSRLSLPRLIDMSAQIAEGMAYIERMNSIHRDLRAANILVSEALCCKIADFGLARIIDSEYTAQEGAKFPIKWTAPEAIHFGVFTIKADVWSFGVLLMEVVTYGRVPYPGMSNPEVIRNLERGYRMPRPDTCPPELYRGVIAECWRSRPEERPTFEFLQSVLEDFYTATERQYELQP
Sequence of NEK1 (human) (Q96PY6 whole entry, looked up): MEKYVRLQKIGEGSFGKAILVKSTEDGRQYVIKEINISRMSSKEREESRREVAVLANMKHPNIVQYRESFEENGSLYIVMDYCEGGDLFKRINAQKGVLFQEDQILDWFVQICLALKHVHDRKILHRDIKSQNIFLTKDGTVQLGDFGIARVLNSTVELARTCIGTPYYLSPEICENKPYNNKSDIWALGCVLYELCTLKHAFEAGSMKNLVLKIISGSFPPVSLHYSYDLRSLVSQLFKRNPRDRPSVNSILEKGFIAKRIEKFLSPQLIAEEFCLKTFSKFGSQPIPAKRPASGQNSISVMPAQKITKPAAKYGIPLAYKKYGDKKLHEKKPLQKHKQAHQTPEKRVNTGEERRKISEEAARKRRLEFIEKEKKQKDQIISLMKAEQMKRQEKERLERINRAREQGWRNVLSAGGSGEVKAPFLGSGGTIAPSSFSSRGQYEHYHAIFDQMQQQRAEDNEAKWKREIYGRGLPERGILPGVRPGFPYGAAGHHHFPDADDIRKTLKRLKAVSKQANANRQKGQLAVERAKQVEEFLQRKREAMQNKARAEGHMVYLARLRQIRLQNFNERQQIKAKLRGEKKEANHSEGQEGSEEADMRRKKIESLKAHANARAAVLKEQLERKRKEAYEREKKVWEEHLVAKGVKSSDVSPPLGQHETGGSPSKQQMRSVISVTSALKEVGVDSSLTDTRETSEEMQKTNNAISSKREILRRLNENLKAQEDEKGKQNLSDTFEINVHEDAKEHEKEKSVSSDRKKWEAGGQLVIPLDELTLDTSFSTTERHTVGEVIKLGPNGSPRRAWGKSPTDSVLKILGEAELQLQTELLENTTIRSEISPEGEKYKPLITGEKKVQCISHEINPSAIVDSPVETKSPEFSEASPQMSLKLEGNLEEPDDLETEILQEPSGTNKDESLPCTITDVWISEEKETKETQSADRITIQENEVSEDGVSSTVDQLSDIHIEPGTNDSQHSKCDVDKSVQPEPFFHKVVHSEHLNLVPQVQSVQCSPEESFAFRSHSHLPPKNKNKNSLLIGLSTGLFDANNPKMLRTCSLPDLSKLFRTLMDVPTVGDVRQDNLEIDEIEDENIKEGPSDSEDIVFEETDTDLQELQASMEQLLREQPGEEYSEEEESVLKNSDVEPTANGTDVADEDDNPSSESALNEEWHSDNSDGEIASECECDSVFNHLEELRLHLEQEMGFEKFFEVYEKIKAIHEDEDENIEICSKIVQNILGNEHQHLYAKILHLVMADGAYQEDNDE
Sequence of CDK3 CCNE1 (human) (P24864 whole entry, looked up): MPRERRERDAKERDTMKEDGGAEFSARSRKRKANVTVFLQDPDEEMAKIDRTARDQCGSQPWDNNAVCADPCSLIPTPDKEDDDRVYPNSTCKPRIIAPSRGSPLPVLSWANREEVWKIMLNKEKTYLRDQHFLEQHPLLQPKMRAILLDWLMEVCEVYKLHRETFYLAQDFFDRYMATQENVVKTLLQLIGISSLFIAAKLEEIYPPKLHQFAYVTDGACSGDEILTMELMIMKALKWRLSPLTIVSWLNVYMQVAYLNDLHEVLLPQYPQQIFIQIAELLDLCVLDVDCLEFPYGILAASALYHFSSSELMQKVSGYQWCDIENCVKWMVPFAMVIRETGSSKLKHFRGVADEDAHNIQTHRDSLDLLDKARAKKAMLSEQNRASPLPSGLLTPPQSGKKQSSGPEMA
Sequence of CDK3 CCNE1 (human) (Q00526 whole entry, looked up): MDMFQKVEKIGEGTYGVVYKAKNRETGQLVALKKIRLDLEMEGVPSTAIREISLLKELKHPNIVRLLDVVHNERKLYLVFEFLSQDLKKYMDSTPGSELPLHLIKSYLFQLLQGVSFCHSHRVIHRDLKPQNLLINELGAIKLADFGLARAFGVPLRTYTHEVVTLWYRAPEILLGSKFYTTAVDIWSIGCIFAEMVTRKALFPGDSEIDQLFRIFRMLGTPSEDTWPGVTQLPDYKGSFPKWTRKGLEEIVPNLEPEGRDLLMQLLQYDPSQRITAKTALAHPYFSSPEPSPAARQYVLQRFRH
Sequence of MAP2K2 (human) (P36507 whole entry, looked up): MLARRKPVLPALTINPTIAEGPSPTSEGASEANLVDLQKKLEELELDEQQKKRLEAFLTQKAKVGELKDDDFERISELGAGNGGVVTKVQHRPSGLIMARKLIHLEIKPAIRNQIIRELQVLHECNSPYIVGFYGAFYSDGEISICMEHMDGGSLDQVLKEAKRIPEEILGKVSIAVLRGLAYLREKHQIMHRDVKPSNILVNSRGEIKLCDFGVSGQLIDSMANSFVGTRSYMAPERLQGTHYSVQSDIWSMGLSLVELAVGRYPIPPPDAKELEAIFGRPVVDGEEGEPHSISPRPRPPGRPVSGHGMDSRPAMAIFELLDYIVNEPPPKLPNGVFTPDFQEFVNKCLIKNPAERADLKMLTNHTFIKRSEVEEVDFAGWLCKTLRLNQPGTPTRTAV
Sequence of DDR2 (human) (Q16832 whole entry, looked up): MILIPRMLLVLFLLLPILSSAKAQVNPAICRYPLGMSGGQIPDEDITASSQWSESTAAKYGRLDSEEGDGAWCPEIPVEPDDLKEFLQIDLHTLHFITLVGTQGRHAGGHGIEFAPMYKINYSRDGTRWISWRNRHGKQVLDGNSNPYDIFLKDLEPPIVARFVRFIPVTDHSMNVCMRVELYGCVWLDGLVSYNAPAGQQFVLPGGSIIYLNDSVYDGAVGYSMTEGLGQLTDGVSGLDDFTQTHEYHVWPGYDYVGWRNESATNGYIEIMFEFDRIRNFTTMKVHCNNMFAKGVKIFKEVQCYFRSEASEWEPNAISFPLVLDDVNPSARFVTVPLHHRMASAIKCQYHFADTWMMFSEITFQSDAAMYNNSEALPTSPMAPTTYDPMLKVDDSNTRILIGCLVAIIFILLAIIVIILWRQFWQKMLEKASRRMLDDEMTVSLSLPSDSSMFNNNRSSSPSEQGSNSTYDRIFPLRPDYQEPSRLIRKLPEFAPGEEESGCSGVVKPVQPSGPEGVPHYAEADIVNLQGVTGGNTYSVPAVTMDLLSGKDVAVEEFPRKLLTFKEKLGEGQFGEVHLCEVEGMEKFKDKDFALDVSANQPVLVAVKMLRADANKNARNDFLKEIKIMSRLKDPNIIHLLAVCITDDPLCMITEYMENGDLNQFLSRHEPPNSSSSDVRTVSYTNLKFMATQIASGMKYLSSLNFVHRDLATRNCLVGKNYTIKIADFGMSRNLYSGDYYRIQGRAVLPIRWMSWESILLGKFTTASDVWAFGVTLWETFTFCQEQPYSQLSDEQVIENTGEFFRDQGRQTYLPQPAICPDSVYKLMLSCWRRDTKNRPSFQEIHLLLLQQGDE
Sequence of LTK (human) (P29376 whole entry, looked up): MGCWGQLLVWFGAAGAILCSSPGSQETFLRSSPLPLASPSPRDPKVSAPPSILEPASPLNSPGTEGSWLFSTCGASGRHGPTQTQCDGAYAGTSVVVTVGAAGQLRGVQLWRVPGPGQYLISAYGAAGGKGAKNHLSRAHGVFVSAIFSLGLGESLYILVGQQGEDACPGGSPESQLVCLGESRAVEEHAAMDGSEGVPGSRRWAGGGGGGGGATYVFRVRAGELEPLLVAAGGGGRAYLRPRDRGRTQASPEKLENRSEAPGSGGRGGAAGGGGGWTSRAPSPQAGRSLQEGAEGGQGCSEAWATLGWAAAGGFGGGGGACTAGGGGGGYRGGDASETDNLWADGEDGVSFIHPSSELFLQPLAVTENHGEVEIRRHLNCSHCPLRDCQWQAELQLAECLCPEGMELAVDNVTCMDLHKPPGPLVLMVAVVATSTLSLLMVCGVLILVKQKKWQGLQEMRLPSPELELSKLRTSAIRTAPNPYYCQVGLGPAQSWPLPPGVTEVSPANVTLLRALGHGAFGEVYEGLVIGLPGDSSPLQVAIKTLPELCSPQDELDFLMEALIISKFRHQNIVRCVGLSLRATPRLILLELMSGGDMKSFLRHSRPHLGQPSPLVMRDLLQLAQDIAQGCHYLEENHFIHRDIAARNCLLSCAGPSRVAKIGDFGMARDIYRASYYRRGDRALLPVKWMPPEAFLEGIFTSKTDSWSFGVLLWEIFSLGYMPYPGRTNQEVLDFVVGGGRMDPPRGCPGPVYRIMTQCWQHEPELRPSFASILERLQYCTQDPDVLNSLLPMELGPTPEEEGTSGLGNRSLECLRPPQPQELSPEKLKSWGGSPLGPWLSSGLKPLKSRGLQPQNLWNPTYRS
Sequence of MAPK14 (human) (Q16539 whole entry, looked up): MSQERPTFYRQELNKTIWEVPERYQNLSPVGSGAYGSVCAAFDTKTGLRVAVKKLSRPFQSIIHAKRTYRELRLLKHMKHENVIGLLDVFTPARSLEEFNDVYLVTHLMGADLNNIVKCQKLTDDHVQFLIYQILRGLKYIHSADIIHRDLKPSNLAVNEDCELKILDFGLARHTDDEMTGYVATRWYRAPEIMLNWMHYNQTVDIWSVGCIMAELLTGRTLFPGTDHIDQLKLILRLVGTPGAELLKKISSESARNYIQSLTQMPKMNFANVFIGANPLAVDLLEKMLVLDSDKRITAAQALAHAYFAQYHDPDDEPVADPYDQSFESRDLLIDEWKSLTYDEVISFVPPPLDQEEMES

## O=C(CCCc1ccc(-c2ccccc2F)cc1)Nc1ccc(O)cc1
ACVRL1 (human)
  residual activity: 101%
AKT1 (human)
  residual activity: 97.7%
ALK (human)
  residual activity: 97%
BLK (human)
  residual activity: 101%
BRSK1 (human)
  residual activity: 103%
BRSK2 (human)
  residual activity: 99.2%
CDC42BPA (human)
  residual activity: 103%
CDK3 CCNE1 (human)
  residual activity: 92.6%
CDK6 CCND3 (human)
  residual activity: 103%
CSNK1A1 (human)
  residual activity: 101%
DDR2 (human)
  residual activity: 98.1%
DYRK1A (human)
  residual activity: 106%
EPHA1 (human)
  residual activity: 117%
EPHB2 (human)
  residual activity: 98.5%
EPHB3 (human)
  residual activity: 96.5%
FGFR4 (human)
  residual activity: 106%
FYN (human)
  residual activity: 94.7%
GSK3B (human)
  residual activity: 99.4%
IRAK1 (human)
  residual activity: 100%
LRRK2 (human)
  residual activity: 98%
LTK (human)
  residual activity: 106%
LYN (human)
  residual activity: 102% and 87.7%
MAP2K2 (human)
  residual activity: 95.1%
MAP3K10 (human)
  residual activity: 88.8%
MAP3K11 (human)
  residual activity: 101%
MAP4K4 (human)
  residual activity: 92.9%
MAPK14 (human)
  residual activity: 89%
MAPKAPK5 (human)
  residual activity: 91.4%
MARK4 (human)
  residual activity: 124%
NEK1 (human)
  residual activity: 100%
NTRK1 (human)
  residual activity: 103%
PASK (human)
  residual activity: 101%
PDGFRA (human)
  residual activity: 96.5%
PDPK1 (human)
  residual activity: 112%
PIM1 (human)
  residual activity: 97.9%
PKN1 (human)
  residual activity: 105%
PRKD3 (human)
  residual activity: 96.9%
PRKG2 (human)
  residual activity: 102%
RPS6KA5 KD2 (human)
  residual activity: 95.2%
RPS6KB1 (human)
  residual activity: 102%
STK3 (human)
  residual activity: 94.8%
WNK3 (human)
  residual activity: 109%

## Cn1cnc2cc3c(Nc4cccc(Br)c4)ncnc3cc21
ACVRL1 (human)
  residual activity: 102%
AKT1 (human)
  residual activity: 89.1%
ALK (human)
  residual activity: 92.4%
BLK (human)
  residual activity: 81%
BRSK1 (human)
  residual activity: 81.6%
BRSK2 (human)
  residual activity: 88.6%
CDC42BPA (human)
  residual activity: 93.2%
CDK3 CCNE1 (human)
  residual activity: 92.5%
CDK6 CCND3 (human)
  residual activity: 107%
CSNK1A1 (human)
  residual activity: 102%
DDR2 (human)
  residual activity: 102%
DYRK1A (human)
  residual activity: 106%
EPHA1 (human)
  residual activity: 84.4%
EPHB2 (human)
  residual activity: 76.2%
EPHB3 (human)
  residual activity: 93.8%
FGFR4 (human)
  residual activity: 94.1%
FYN (human)
  residual activity: 85.9%
GSK3B (human)
  residual activity: 101%
IRAK1 (human)
  residual activity: 80.5%
LRRK2 (human)
  residual activity: 68.2%
LTK (human)
  residual activity: 77.9%
LYN (human)
  residual activity: 52.4% and 75.8%
MAP2K2 (human)
  residual activity: 101%
MAP3K10 (human)
  residual activity: 94%
MAP3K11 (human)
  residual activity: 94.8%
MAP4K4 (human)
  residual activity: 52.1%
MAPK14 (human)
  residual activity: 93.6%
MAPKAPK5 (human)
  residual activity: 130%
MARK4 (human)
  residual activity: 105%
NEK1 (human)
  residual activity: 97.9%
NTRK1 (human)
  residual activity: 90.8%
PASK (human)
  residual activity: 89.8%
PDGFRA (human)
  residual activity: 107%
PDPK1 (human)
  residual activity: 98.8%
PIM1 (human)
  residual activity: 73.8%
PKN1 (human)
  residual activity: 89.1%
PRKD3 (human)
  residual activity: 93.1%
PRKG2 (human)
  residual activity: 63.6%
RPS6KA5 KD2 (human)
  residual activity: 93.5%
RPS6KB1 (human)
  residual activity: 100%
STK3 (human)
  residual activity: 89.9%
WNK3 (human)
  residual activity: 95.8%

## Cn1sc(=O)n(Cc2ccccc2)c1=O
ACVRL1 (human)
  residual activity: 117%
AKT1 (human)
  residual activity: 101%
ALK (human)
  residual activity: 94.1%
BLK (human)
  residual activity: 101%
BRSK1 (human)
  residual activity: 102%
BRSK2 (human)
  residual activity: 99.4%
CDC42BPA (human)
  residual activity: 94%
CDK3 CCNE1 (human)
  residual activity: 78.1%
CDK6 CCND3 (human)
  residual activity: 100%
CSNK1A1 (human)
  residual activity: 99.5%
DDR2 (human)
  residual activity: 102%
DYRK1A (human)
  residual activity: 92.6%
EPHA1 (human)
  residual activity: 106%
EPHB2 (human)
  residual activity: 88.5%
EPHB3 (human)
  residual activity: 91.3%
FGFR4 (human)
  residual activity: 97.2%
FYN (human)
  residual activity: 105%
GSK3B (human)
  residual activity: 114%
IRAK1 (human)
  residual activity: 116%
LRRK2 (human)
  residual activity: 91.9%
LTK (human)
  residual activity: 101%
LYN (human)
  residual activity: 90.8% and 98.9%
MAP2K2 (human)
  residual activity: 101%
MAP3K10 (human)
  residual activity: 99.5%
MAP3K11 (human)
  residual activity: 95.3%
MAP4K4 (human)
  residual activity: 97%
MAPK14 (human)
  residual activity: 101%
MAPKAPK5 (human)
  residual activity: 94.2%
MARK4 (human)
  residual activity: 85.1%
NEK1 (human)
  residual activity: 102%
NTRK1 (human)
  residual activity: 99.3%
PASK (human)
  residual activity: 101%
PDGFRA (human)
  residual activity: 84.1%
PDPK1 (human)
  residual activity: 95.5%
PIM1 (human)
  residual activity: 93%
PKN1 (human)
  residual activity: 98.5%
PRKD3 (human)
  residual activity: 95.9%
PRKG2 (human)
  residual activity: 108%
RPS6KA5 KD2 (human)
  residual activity: 108%
RPS6KB1 (human)
  residual activity: 98%
STK3 (human)
  residual activity: 93.2%
WNK3 (human)
  residual activity: 101%
